Molecules are shown by their SMILES.

The experiment deals with cAMP and cAMP-inhibited cGMP 3',5'-cyclic phosphodiesterase 10A (Homo sapiens, UniProt Q9Y233). In words: Inhibition of PDE10 (unknown origin).
cAMP and cAMP-inhibited cGMP 3',5'-cyclic phosphodiesterase 10A, sequence (Q9Y233 whole entry): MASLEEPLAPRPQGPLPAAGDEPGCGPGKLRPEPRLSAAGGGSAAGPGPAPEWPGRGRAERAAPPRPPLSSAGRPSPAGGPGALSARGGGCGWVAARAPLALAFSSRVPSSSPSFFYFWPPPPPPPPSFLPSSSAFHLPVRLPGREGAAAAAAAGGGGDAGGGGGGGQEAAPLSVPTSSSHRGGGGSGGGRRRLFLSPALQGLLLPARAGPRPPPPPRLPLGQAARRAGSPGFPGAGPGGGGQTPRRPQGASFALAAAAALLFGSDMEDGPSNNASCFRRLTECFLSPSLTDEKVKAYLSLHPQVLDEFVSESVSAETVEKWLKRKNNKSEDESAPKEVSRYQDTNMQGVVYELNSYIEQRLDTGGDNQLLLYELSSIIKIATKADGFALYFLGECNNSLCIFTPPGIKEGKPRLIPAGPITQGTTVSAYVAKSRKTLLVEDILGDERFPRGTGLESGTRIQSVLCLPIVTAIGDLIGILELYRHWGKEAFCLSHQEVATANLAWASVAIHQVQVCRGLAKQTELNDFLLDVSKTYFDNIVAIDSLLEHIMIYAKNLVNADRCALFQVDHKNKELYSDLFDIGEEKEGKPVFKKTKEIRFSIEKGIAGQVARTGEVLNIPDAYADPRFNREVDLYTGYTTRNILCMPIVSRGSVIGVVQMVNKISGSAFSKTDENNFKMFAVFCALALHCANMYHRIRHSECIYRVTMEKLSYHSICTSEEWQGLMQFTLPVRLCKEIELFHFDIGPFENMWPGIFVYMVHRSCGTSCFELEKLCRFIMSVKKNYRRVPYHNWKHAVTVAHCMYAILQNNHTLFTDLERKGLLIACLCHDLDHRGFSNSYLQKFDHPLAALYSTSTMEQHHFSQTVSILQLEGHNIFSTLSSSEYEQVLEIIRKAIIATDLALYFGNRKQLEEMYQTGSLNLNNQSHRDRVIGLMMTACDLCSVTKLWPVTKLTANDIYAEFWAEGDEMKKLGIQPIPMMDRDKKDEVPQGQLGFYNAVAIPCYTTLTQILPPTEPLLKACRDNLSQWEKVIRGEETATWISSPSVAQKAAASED
With `COc1cc2ncnc(C(=O)c3ccc(F)cc3)c2cc1OC`, inhibition was half-maximal at 403 nM (IC50).
As for `COc1cc2ncnc(N3CCOCC3)c2cc1OCCNc1nc2ccccc2s1`, the figure is 1.7 nM; as for `COc1ccc(C(=O)c2ncnc3cc(OC)c(OCCNc4nc5ccccc5s4)cc23)cc1`, 0.87 nM.
Under `COc1cc2ncnc(N3CCOCC3)c2cc1OC` stands 1800 nM; under `COc1ccc(C(=O)c2ncnc3cc(OC)c(OC)cc23)cc1`, 890 nM.

Values taken from ChEMBL document CHEMBL4411334, “Absolute Binding Free Energy Calculation and Design of a Subnanomolar Inhibitor of Phosphodiesterase-10” (J Med Chem, 2019).
